In US12312328B2, “Pyrazoline dihydroquinolones, pharmaceutical compositions, and uses” (Emory University, priority 2013, dated 2025):
Read-outs that look alike come from different tables or passages of the source.

How the values were obtained:
[1] = target: T1, GluN2D-containing receptors (Rattus norvegicus, UniProt P35439+Q62645); assay: Two-electrode voltage-clamp inhibition of GluN2D-containing NMDA receptors in Xenopus laevis oocytes; type: cell-based; details: GluN2D-containing receptors
T1 construct: expressed in transfected cells; host or cells: Xenopus laevis oocytes
T1 sequence (Q62645 28-1323, other chains not shown): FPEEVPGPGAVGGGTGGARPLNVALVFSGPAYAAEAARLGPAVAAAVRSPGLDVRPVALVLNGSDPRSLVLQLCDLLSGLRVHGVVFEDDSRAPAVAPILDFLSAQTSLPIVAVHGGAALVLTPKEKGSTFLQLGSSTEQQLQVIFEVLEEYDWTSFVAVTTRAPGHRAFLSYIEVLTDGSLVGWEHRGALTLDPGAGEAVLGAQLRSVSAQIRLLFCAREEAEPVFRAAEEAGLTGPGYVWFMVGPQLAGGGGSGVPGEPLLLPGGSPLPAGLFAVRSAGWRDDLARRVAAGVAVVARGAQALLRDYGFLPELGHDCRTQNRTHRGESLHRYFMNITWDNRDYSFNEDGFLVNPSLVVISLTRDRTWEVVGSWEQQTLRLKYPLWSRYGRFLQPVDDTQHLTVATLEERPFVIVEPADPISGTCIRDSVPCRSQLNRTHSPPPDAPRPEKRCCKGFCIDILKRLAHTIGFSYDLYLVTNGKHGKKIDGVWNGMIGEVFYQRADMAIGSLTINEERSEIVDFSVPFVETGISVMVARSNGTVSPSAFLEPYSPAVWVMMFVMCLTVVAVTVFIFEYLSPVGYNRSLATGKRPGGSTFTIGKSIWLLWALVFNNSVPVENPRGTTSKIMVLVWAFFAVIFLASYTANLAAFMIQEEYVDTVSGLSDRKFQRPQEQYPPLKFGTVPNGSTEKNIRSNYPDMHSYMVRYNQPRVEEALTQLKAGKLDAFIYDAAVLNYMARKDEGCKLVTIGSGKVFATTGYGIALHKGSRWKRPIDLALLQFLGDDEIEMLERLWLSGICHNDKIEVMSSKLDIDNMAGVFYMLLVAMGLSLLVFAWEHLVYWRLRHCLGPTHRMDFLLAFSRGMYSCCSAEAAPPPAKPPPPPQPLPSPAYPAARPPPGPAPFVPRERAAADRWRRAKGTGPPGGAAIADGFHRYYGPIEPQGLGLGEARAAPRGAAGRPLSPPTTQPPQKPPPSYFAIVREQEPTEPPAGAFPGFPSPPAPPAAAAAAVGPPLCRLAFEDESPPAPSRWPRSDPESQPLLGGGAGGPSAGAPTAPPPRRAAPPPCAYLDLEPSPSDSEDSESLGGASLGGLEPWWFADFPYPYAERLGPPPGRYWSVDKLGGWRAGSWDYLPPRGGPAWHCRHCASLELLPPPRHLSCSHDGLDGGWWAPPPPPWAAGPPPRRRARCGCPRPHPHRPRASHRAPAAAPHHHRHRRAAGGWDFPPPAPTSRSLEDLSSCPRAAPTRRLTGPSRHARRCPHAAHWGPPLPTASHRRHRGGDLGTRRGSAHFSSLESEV
Experimental: (§1) IC50 values were obtained by fitting the Hill equation to the average composite concentration-effect curves.
(§2) Xenopus laevis oocytes were isolated and maintained as described in Hansen & Traynelis, J Neurosci 2011, 31, 3650-3661. Oocytes were placed in a perfusion chamber with recording solution comprised of (in mM) 90 NaCl, 1 KCl, 0.5 BaCl2, 0.005 EDTA and 10 HEPES, pH adjusted to 7.4 with NaOH at 23° C. The glass electrodes used had tip resistance of 0.5-2.0 MΩ and were filled with 0.3-3.0 M KCl. Compounds were made as 20 mM stock solutions in DMSO and diluted to final concentrations in recording solution (final DMSO was 0.1-0.05% vol/vol). The current recordings were performed using a Warner OC-725B or C amplifier at a holding potential of −40 mV.

[2] = target: T2, GluN2C-containing receptors (Rattus norvegicus, UniProt P35439+Q00961); assay: Two-electrode voltage-clamp inhibition of GluN2C-containing NMDA receptors in Xenopus laevis oocytes; type: cell-based
T2 construct: expressed in transfected cells; host or cells: Xenopus laevis oocytes
T2 sequence (Q00961 20-1237, other chains not shown): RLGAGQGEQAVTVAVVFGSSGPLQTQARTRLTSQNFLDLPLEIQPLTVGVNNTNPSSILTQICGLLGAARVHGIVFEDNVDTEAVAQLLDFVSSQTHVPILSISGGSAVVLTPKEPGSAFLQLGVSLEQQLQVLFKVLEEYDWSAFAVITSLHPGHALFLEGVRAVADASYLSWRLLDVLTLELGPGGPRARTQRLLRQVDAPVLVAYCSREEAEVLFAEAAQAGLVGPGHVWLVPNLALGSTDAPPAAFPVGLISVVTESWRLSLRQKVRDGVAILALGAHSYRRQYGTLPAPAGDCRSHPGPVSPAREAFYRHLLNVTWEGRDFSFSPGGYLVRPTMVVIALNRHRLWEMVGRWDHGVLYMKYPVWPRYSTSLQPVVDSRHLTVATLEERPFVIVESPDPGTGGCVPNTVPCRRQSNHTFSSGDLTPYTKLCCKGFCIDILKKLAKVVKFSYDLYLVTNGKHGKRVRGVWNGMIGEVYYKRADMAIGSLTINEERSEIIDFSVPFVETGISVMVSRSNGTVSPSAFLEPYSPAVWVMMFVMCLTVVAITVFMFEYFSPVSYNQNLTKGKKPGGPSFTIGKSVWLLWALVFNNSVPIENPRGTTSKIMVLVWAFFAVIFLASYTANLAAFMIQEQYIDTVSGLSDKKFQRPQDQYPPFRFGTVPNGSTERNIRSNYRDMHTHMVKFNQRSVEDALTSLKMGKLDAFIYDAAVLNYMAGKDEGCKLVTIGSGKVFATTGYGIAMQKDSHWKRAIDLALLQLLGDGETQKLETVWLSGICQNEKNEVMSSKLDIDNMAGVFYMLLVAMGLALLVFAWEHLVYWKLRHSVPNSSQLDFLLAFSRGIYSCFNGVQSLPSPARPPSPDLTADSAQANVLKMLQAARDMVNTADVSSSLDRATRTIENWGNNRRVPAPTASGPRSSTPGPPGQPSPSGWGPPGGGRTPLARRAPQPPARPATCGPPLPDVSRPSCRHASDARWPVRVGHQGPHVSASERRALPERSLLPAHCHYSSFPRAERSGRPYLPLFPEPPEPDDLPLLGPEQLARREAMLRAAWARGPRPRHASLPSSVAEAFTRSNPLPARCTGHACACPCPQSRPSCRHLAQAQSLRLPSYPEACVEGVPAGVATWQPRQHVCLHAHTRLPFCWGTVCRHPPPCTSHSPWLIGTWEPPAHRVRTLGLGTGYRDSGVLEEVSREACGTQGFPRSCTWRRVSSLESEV
Experimental: as §1, §2

[3] = tested on: GluN2C- and GluN2D-containing NMDA receptors; assay: NMDA receptor inhibition and subunit selectivity, GluN2C/GluN2D not told apart; type: cell-based
Experimental: as §1, §2

[4] = target: T3, GluN2D-containing receptors (Rattus norvegicus, UniProt Q62645); assay: Two-electrode voltage-clamp inhibition of GluN2D-containing NMDA receptors in Xenopus laevis oocytes; type: cell-based
T3 construct: expressed in transfected cells; host or cells: Xenopus laevis oocytes
T3 sequence (Q62645 28-1323, other chains not shown): as the sequence (Q62645 28-1323, other chains not shown) above
Experimental: as §1, §2

[5] = target: T4, GluN2C-containing receptors (Rattus norvegicus, UniProt Q00961); assay: Two-electrode voltage-clamp inhibition of GluN2C-containing NMDA receptors in Xenopus laevis oocytes; type: cell-based
T4 construct: expressed in transfected cells; host or cells: Xenopus laevis oocytes
T4 sequence (Q00961 20-1237, other chains not shown): as the sequence (Q00961 20-1237, other chains not shown) above
Experimental: as §1, §2

Plasma stability, mouse = type: in vitro ADME; details: two-hour time-course
Experimental: (§3) Three analogs, (58) 997-33, (26)997-23 and (64) 997-57 were evaluated for plasma stability as well as aqueous solubility. […] The aqueous solubility of compounds (26)997-23 and (58) 997-33 was evaluated in oocyte recording buffer using nephelometry. […] In order to assess the potential BBB penetration, compounds (26)997-23 and (64)997-57 were selected for evaluation in the MDR1-MDCK permeability assay (FIG. 19). […] The same compounds were also evaluated for metabolic stability using human liver microsomes.

Plasma stability, rat = type: in vitro ADME; details: two-hour time-course
Experimental: as §3

[6] = tested on: MDR1-MDCK cell monolayers; assay: MDR1-MDCK permeability assay; type: in vitro ADME; details: for BBB penetration classification: from Papp and efflux ratio in MDR1-MDCK
Experimental: The Papp and efflux ratio were calculated as described in the Methods. […] See Wang et al., International Journal of Pharmaceutics, 2005, 288, 349-359.
Cell monolayers were grown to confluence on collagen-coated, microporous, polycarbonate membranes in 12-well Costar Transwell® plates. The permeability assay buffer was Hanks Balanced Salt Solution containing 10 mM HEPES and 15 mM glucose at pH 7.4. The buffer in the receiver chamber also contained 1% bovine serum albumin. The dosing solution concentration in the assay buffer was 5 μM for each compound tested. The cell monolayers were dosed on the apical side (A-to-B) or basolateral side (B-to-A) and incubated at 37° C. with 5% CO2 in a humidified incubator. Samples were taken from the donor and receiver chambers at 120 minutes. Each determination was performed in duplicate. The co-dosed lucifer yellow flux was also measured for each monolayer to ensure no damage was inflicted to the cell monolayers during the flux period. All samples were assayed by LC-MS/MS using electrospray ionization. The apparent permeability (Papp) and percent recovery were calculated as follows. […] Human Liver Microsomal Stability

Plasma stability, human = type: in vitro ADME; details: two-hour time-course
Experimental: as §3

[7] = GluN2D-containing receptors, read-out: inhibition IC50 for GluN2D

SMILES: O=C(CC(F)(F)CO)N1N=C(c2c(-c3ccc(Cl)cc3)c3ccccc3[nH]c2=O)CC1c1ccc(Cl)cc1 (stereo not shown) [4-(4-chlorophenyl)-3-(5-(4-chlorophenyl)-1-(3,3-difluoro-4-hydroxybutanoyl)-4,5-dihydro-1H-pyrazol-3-yl)quinolin-2(1H)-one]
- IC50 [1]: 800 nM
- IC50 [2]: 1600 nM

SMILES: O=C(O)CCC(=O)N1N=C(c2c(-c3ccncc3)c3ccccc3[nH]c2=O)CC1c1ccc(Cl)cc1 (stereo not shown) [4-(5-(4-chlorophenyl)-3-(2-oxo-4-(pyridin-4-yl)-1,2-dihydroquinolin-3-yl)-4,5-dihydro-1H-pyrazol-1-yl)-4-oxobutanoic acid]
- IC50 [1]: 8100 nM
- IC50 [2]: 15000 nM

SMILES: O=C(CC(F)(F)C(=O)O)N1N=C(c2c(-c3cccc(F)c3)c3ccccc3[nH]c2=O)CC1c1ccc(Cl)cc1 (stereo not shown) [4-(5-(4-chlorophenyl)-3-(4-(3-fluorophenyl)-2-oxo-1,2-dihydroquinolin-3-yl)-4,5-dihydro-1H-pyrazol-1-yl)-2,2-difluoro-4-oxobutanoic acid]
- IC50 [1]: 500 nM
- IC50 [2]: 600 nM

SMILES: O=C(O)CC(F)(F)C(=O)N1N=C(c2c(-c3ccc(Cl)cc3)c3ccccc3[nH]c2=O)CC1c1ccc(Cl)cc1 (stereo not shown) [4-(5-(4-chlorophenyl)-3-(4-(4-chlorophenyl)-2-oxo-1,2-dihydroquinolin-3-yl)-4,5-dihydro-1H-pyrazol-1-yl)-3,3-difluoro-4-oxobutanoic acid]
- IC50 [1]: 50 nM
- IC50 [2]: 390 nM

SMILES: O=C(CC(F)(F)CO)N1N=C(c2c(-c3ccc(Cl)cc3)c3ccccc3[nH]c2=O)C[C@@H]1c1ccc(Cl)cc1 [(R)-4-(4-chlorophenyl)-3-(5-(4-chlorophenyl)-1-(3,3-difluoro-4-hydroxybutanoyl)-4,5-dihydro-1H-pyrazol-3-yl)quinolin-2(1H)-one]
- IC50 [1]: 3600 nM
- IC50 [2]: 8500 nM

SMILES: O=C(CC(F)(F)CO)N1N=C(c2c(-c3ccc(Cl)cc3)c3ccccc3[nH]c2=O)C[C@H]1c1ccc(Cl)cc1 [(S)-4-(4-chlorophenyl)-3-(5-(4-chlorophenyl)-1-(3,3-difluoro-4-hydroxybutanoyl)-4,5-dihydro-1H-pyrazol-3-yl)quinolin-2(1H)-one]
- IC50 [1]: 600 nM
- IC50 [2]: 1400 nM

SMILES: O=C(O)CCC(=O)N1N=C(c2c(-c3ccccc3)c3cc(Cl)ccc3[nH]c2=O)CC1c1ccc(C(=O)O)cc1 (stereo not shown) [Compound 997-5, 4-(1-(3-Carboxypropanoyl)-3-(6-chloro-2-oxo-4-phenyl-1,2-dihydroquinolin-3-yl)-4,5-dihydro-1H-pyrazol-5-yl)benzoic acid]
- activity at NMDA receptors, in words [3]: no activity

SMILES: COC(=O)c1ccc(C2CC(c3c(-c4ccccc4)c4cc(Cl)ccc4[nH]c3=O)=NN2C(=O)CCC(=O)O)cc1 (stereo not shown) [Compound 997-6, 4-(3-(6-Chloro-2-oxo-4-phenyl-1,2-dihydroquinolin-3-yl)-5-(4-(methoxycarbonyl)phenyl)-4,5-dihydro-1H-pyrazol-1-yl)-4-oxobutanoic acid]
- IC50 ([4]; subunit inferred, GluN2D by context of b229, read-out: IC50 (potency, FIG. 10)): 32000 nM

SMILES: O=C(O)CCC(=O)N1N=C(c2c(-c3ccc(Br)cc3)c3ccccc3[nH]c2=O)CC1c1ccc(Br)cc1 (stereo not shown) [Compound 997-7, 4-(5-(4-Bromophenyl)-3-(4-(4-bromophenyl)-2-oxo-1,2-dihydroquinolin-3-yl)-4,5-dihydro-1H-pyrazol-1-yl)-4-oxobutanoic acid]
- selectivity for GluN2D-containing over GluN2A-containing receptors [4]: 33 fold
- selectivity for GluN2D-containing over GluN2B-containing receptors [4]: 67 fold
- IC50 [4, 7]: 390 nM
- IC50 [5]: 710 nM

SMILES: O=C(O)CCC(=O)N1N=C(c2c(-c3ccccc3)c3cc(Cl)ccc3[nH]c2=O)CC1c1ccc(C(F)(F)F)cc1 (stereo not shown) [Compound 997-8, 4-(3-(6-Chloro-2-oxo-4-phenyl-1,2-dihydroquinolin-3-yl)-5-(4-(trifluoromethyl)phenyl)-4,5-dihydro-1H-pyrazol-1-yl)-4-oxobutanoic acid]
- IC50 [4, 7]: 4100 nM

SMILES: COC(=O)CCC(=O)N1N=C(c2c(-c3ccccc3)c3cc(Cl)ccc3[nH]c2=O)CC1c1ccc(Br)cc1 (stereo not shown) [Compound 997-11, Methyl 4-(5-(4-bromophenyl)-3-(6-chloro-2-oxo-4-phenyl-1,2-dihydroquinolin-3-yl)-4,5-dihydro-1H-pyrazol-1-yl)-4-oxobutanoate]
- activity at NMDA receptors, in words [3]: inactive

SMILES: COC(=O)/C=C/C(=O)N1N=C(c2c(-c3ccc(Br)cc3)c3ccccc3[nH]c2=O)CC1c1ccc(Cl)cc1 (stereo not shown) [Compound 997-31, (E)-Methyl 4-(3-(4-(4-bromophenyl)-2-oxo-1,2-dihydroquinolin-3-yl)-5-(4-chlorophenyl)-4,5-dihydro-1H-pyrazol-1-yl)-4-oxobut-2-enoate]
- activity at NMDA receptors, in words [3]: inactive

SMILES: O=C(O)CCC(=O)N1N=C(c2c(-c3ccc(F)c(Cl)c3)c3ccccc3[nH]c2=O)CC1c1ccc(Cl)cc1 (stereo not shown) [Compound 997-34, 4-(3-(4-(3-Chloro-4-fluorophenyl)-2-oxo-1,2-dihydroquinolin-3-yl)-5-(4-chlorophenyl)-4,5-dihydro-1H-pyrazol-1-yl)-4-oxobutanoic acid]
- potency at GluN2D-containing receptors, in words [4]: submicromolar

SMILES: O=C(O)CCC(=O)N1N=C(c2c(-c3cc(F)cc(F)c3)c3ccccc3[nH]c2=O)CC1c1ccc(Cl)cc1 (stereo not shown) [Compound 997-35, 4-(5-(4-Chlorophenyl)-3-(4-(3,5-difluorophenyl)-2-oxo-1,2-dihydroquinolin-3-yl)-4,5-dihydro-1H-pyrazol-1-yl)-4-oxobutanoic acid]
- potency at GluN2D-containing receptors, in words [4]: submicromolar

SMILES: O=C(O)CCC(=O)N1N=C(c2c(-c3cc(Cl)cc(Cl)c3)c3ccccc3[nH]c2=O)CC1c1ccc(Cl)cc1 (stereo not shown) [Compound 997-37]
- potency at GluN2D-containing receptors, in words [4]: submicromolar

SMILES: O=C(O)CCC(=O)N1N=C(c2c(-c3ccc(Cl)c(Cl)c3)c3ccccc3[nH]c2=O)CC1c1ccc(Cl)cc1 (stereo not shown) [Compound 997-41, 4-(5-(4-Chlorophenyl)-3-(4-(3,4-dichlorophenyl)-2-oxo-1,2-dihydroquinolin-3-yl)-4,5-dihydro-1H-pyrazol-1-yl)-4-oxobutanoic acid]
- potency at GluN2D-containing receptors, in words [4]: submicromolar

SMILES: O=C(O)CCC(=O)N1N=C(c2c(-c3ccc(F)c(F)c3)c3ccccc3[nH]c2=O)CC1c1ccc(Cl)cc1 (stereo not shown) [Compound 997-42, 4-(5-(4-Chlorophenyl)-3-(4-(3,4-difluorophenyl)-2-oxo-1,2-dihydroquinolin-3-yl)-4,5-dihydro-1H-pyrazol-1-yl)-4-oxobutanoic acid]
- potency at GluN2D-containing receptors, in words [4]: submicromolar

SMILES: O=C(CCCO)N1N=C(c2c(-c3ccc(Cl)cc3)c3ccccc3[nH]c2=O)CC1c1ccc(Cl)cc1 (stereo not shown) [Compound 997-57, 4-(4-Chlorophenyl)-3-(5-(4-chlorophenyl)-1-(4-hydroxybutanoyl)-4,5-dihydro-1H-pyrazol-3-yl)quinolin-2(1H)-one]
- plasma stability (Plasma stability, mouse): minimal degradation
- plasma stability (Plasma stability, rat): minimal degradation
- Papp A-B ([6]; MDR1-MDCK, 5 μM, 120 minutes): 2.46 ×10⁻⁶ cm/s
- BBB penetration classification [6]: low BBB potential
- selectivity over GluN2A-containing receptors ([3]; activity at GluN2C- and GluN2D-containing receptors versus GluN2A): 90 fold
- plasma stability (Plasma stability, human): minimal degradation

SMILES: O=C(O)CCCN1N=C(c2c(-c3ccc(Cl)cc3)c3ccccc3[nH]c2=O)CC1c1ccc(Cl)cc1 (stereo not shown) [Compound 997-63, 4-(5-(4-Chlorophenyl)-3-(4-(4-chlorophenyl)-2-oxo-1,2-dihydroquinolin-3-yl)-4,5-dihydro-1H-pyrazol-1-yl)butanoic acid]
- IC50 [4, 7]: 1700 nM
- IC50 [5]: 3000 nM

SMILES: O=C(CCCF)N1N=C(c2c(-c3ccc(Cl)cc3)c3ccccc3[nH]c2=O)CC1c1ccc(Cl)cc1 (stereo not shown) [Compound 997-64, 4-(4-Chlorophenyl)-3-(5-(4-chlorophenyl)-1-(4-fluorobutanoyl)-4,5-dihydro-1H-pyrazol-3-yl)quinolin-2(1H)-one]
- Papp A-B ([6]; MDR1-MDCK, 5 μM, 120 minutes): 3.88 ×10⁻⁶ cm/s
- Papp B-A ([6]; MDR1-MDCK, 5 μM, 120 minutes): 9.52 ×10⁻⁶ cm/s
- BBB penetration classification [6]: highly brain penetrable
